Usually IC50 stands for the point on the concentration scale where inhibition reaches its midpoint.

The structures appear in SMILES notation.

Experiment [1] deals with Tau in human Alzheimer disease brain homogenate (Homo sapiens, UniProt P10636). The experiment can be described thus: Competition binding to Tau in AD brain homogenate (18F-labeled Tau binder). The arrangement: key to High affinity to Tau (IC50 in AD brain homogenate), grade: − poor; ∘ moderate; + good; ++ very good; +++ excellent. Conditions: non-radioactive fluorine-19 derivatives; for IC50: human AD brain homogenate. As for the experimental part:
Determination of Binding in AD and Healthy Control Brain Homogenates
20 μg of human Alzheimer disease brain homogenate was incubated with a dilution series of each test compound (1000 to 0.06 nM) in the presence of 800 Bq of ^18F-labeled Tau binder. The samples were shaken at 110 rpm for 45 min at 37° C. Samples were then filtered through GF/B 96 well filter plates and washed twice with 300 μL assay buffer (PBS containing 0.1% BSA and 2% DMSO). Thereafter, filter plates were sealed and a Fuji Film Imaging Plate (BAS-SR2025) was placed on top. The imaging plate was analyzed after overnight exposition using a Fuji Film BAS-5000. Non-specific signal was determined with samples containing ^18F-labeled Tau-reference binder in the presence of assay buffer without brain substrate and competitor. Specific binding was calculated by subtracting the non-specific signal from the measured samples signal. The unblocked ^18F-labeled Tau-binder signal was defined as total binding. IC50 values were calculated by Prism V7 (GraphPad) setting total binding to 100%.

Experiment [2] has as its target T1, MAO-A (Homo sapiens, UniProt P21397).
T1 construct: human brain homogenate (without AD pathology, HC); from tissue; host or cells: human brain homogenate without AD pathology (HC)
T1 sequence (P21397 1-527): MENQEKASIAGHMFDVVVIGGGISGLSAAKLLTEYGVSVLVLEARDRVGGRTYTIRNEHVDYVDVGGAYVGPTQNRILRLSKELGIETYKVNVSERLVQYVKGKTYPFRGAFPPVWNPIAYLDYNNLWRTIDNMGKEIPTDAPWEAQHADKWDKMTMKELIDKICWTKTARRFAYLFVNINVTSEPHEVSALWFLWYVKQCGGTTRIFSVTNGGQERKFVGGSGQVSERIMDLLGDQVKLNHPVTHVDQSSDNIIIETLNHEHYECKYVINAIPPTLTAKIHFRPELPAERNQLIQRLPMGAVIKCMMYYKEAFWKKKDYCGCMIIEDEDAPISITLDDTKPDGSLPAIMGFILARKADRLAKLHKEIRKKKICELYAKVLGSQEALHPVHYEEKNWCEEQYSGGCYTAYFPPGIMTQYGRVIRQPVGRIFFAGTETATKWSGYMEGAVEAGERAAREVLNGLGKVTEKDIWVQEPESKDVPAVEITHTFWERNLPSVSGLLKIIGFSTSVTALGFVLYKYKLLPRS
The experiment can be described thus: Binding affinity to MAO-A in human HC brain homogenate (3H-Harmine competition). Also noted: key to Low affinity to MAO A (IC50 in human HC brain homogenate), grade: − poor; ∘ moderate; + good; ++ very good; +++ excellent. Particulars: for IC50: human control brain homogenate, 3H-Harmine competition. The method, then:
Determination of the Binding Affinity to MAO-A in HC Brain Homogenate
20 μg of mouse whole brain or human brain homogenate (without AD pathology, HC) was incubated with a dilution series of each test compound (1000 to 0.06 nM) in the presence of 700 Bq of ^3H-labeled MAO-A binder Harmine. The samples were shaken at 110 rpm for 60 min at 37° C. Samples were then filtered through GF/B 96 well filter plates and washed twice with 200 μL assay buffer (PBS containing 0.1% BSA and 2% DMSO). Thereafter, 40 μL Szintillation cocktail was added and the filter plates were sealed. The counts were then counted using a TopCount (Perkin Elmer). Non-specific signal was determined with samples containing ^3H-Harmine in the presence of assay buffer without brain substrate and competitor. Specific binding was calculated by subtracting the non-specific signal from the measured samples signal. The unblocked ^3H-Harmine signal was defined as total binding. IC50 values were calculated by Prism V7 (GraphPad) setting total binding to 100%.

For experiment [3], the target named is T2, aggregated recombinant human K18 fibrils (Homo sapiens, UniProt P10636).
T2 construct: aggregated recombinant human K18 fibrils
Kind of experiment: Binding affinity to K18 Tau aggregates (3H-labeled Tau binder competition). The arrangement: key to High affinity to Tau (IC50 using K18 Tau aggregates), grade: − poor; ∘ moderate; + good; ++ very good; +++ excellent. Conditions: non-radioactive fluorine-19 derivatives; for IC50: read-out: IC50 using K18 Tau aggregates. As for the experimental part: Determination of the Binding Affinity to K18 Tau Aggregates
200 ng of aggregated recombinant human K18 fibrils were incubated with a dilution series of each test compound (1000 to 0.06 nM) in the presence of 3 nM of ^3H-labeled Tau binder. The samples were shaken at 110 rpm for 60 min at 37° C. Samples were then filtered through GF/B 96 well filter plates and washed twice with 200 μL assay buffer (PBS containing 0.1% BSA and 2% DMSO). Thereafter, 40 μL of MicroScint 40 was added to each well of the filter plate. Filter plates were sealed and then placed shaking at 110 rpm at 37° C. for 15 min. Measurement was done by TopCount NXT HTS (PerkinElmer). Non-specific signal was determined with samples containing ^3H-labeled Tau binder in the presence of 2.5 μM unlabeled Tau-reference binder and K18 fibrils. Specific binding was calculated by subtracting the non-specific signal from the measured samples signal. The unblocked ^3H-labeled Tau-binder signal was defined as total binding. IC50 values were calculated by Prism V7 (GraphPad) setting total binding to 100%.

Experiment [4] in a line: Tracer signal in HC brain homogenate compared to AD brain homogenate. The class given is binding, human. Also noted: key to Signal to noise (% signal intensity in HC brain homogenate compared to tracer signal in AD brain homogenate), grade: − poor; ∘ moderate; + good; ++ very good; +++ excellent.
The nature of experiment [5]: Tracer signal in mouse brain homogenate compared to AD brain homogenate. Particulars: radioactive fluorine-18 derivatives. It is filed as binding. Also noted: key to High signal to noise (% signal intensity in mouse brain homogenate compared to tracer signal in AD brain homogenate), grade: − poor; ∘ moderate; + good; ++ very good; +++ excellent.
Where [6] appears, read: radioactive fluorine-18 derivatives.

T2 sequence (P10636 561-685 limits assumed): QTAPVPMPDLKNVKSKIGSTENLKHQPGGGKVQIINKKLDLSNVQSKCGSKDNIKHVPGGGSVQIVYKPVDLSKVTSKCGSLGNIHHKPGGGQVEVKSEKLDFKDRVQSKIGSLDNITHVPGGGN
Chain of Tau in human Alzheimer disease brain homogenate (P10636 623-708 limits assumed): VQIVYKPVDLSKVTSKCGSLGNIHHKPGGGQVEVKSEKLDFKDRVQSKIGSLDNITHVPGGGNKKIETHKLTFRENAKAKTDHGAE

Take `Fc1ccc(-c2ccc3c(c2)[nH]c2ccncc23)cn1` [F-1, reference compound]: the IC50 in experiment [1] is below 2 nM; in experiment [2] it was 5.9 nM.
On the same counts, the results for `Fc1cc(-c2ccc3c(c2)[nH]c2ccncc23)ccn1` [F-2] are below 2 nM and 37.2 nM.
For `[18F]c1ccc(-c2ccc3c(c2)[nH]c2ccncc23)cn1` [^18F-1, reference compound], the IC50 in experiment [1] is below 2 nM; in experiment [3] it was 19.6 nM; in experiment [2], 5.9 nM.
Regarding `[18F]c1cc(-c2ccc3c(c2)[nH]c2ccncc23)ccn1` [^18F-2], the “High affinity to Tau (IC50 in AD brain homogenate), grade” value in experiment [1] (AD brain homogenate) is “+++”. Also, the IC50 in experiment [1] is below 2 nM; in experiment [3] it was 3 nM; in experiment [2], 37.2 nM. The “High affinity to Tau (IC50 using K18 Tau aggregates), grade” value in experiment [3] (K18 Tau aggregates) is “++”. In experiment [2] (human HC brain homogenate), the “Low affinity to MAO A (IC50 in human HC brain homogenate), grade” value is given as “∘”. In addition, the “fold higher IC50 than compound 18F-1, MAO A in human control brain homogenate” value in experiment [2] (ratio to 18F-1) stood at 6.3 fold. Besides, the “less relative signal in HC brain homogenate ratio than 18F-1” value in experiment [4] (binding in AD brain homogenate and HC brain homogenate, difference to 18F-1) worked out at 19%. In addition, in experiment [4] (setting [6]), the “% signal intensity in HC brain homogenate compared to tracer signal in AD brain homogenate” value is “(66%)”. The “Signal to noise (% signal intensity in HC brain homogenate compared to tracer signal in AD brain homogenate), grade” value in experiment [4] (setting [6]) is “∘”. For the same compound, the “% signal intensity in mouse brain homogenate compared to tracer signal in AD brain homogenate” value in experiment [5] was “(57%)”. Besides, in experiment [5], the “High signal to noise (% signal intensity in mouse brain homogenate compared to tracer signal in AD brain homogenate), grade” value is given as “+”.

For the origin of these results see patent US11306089B2, “Gamma-carboline compounds for the detection of Tau aggregates” (AC IMMUNE SA, priority 2018, dated 2022).
